Laboratory results taken from patent US5159077A, “Penam antibacterial compounds” (Hoffmann-La Roche Inc., priority 1989, dated 1992).
Where a name gives a salt, the structure may show the parent alone. Read-outs that look alike come from different tables or passages of the source.

What was measured:
Streptococcus 82 = test: In vitro MIC, Agar Well Diffusion Method; format: cell-based, Streptococcus aureus
Experimental: (§1) In vitro antimicrobial activity was determined in BBL seed agar. Serial dilutions of the test compound were pipetted into agar wells (80 μL per well). […] For reference, see A. H. Litton, Antibiotics: Assessment of Antimicrobial Activity and Resistance, Academic Press, New York, pages 19-30 (1983).

Serratia marcescens SM [1] = test: In vitro MIC, Agar Well Diffusion Method; format: cell-based; conditions: read-out: In Vitro MIC
Experimental: as §1

[2] = system: Klebsiella pneumoniae 369; test: In vitro MIC, Agar Well Diffusion Method; format: cell-based
Experimental: as §1

[3] = system: Streptococcus faecium ATCC 8043; test: In vitro MIC, Agar Well Diffusion Method; format: cell-based; conditions: Enterococcus faecium
Experimental: as §1

[4] = system: Pseudomonas aeruginosa 56; test: In vitro MIC, Agar Well Diffusion Method; format: cell-based
Experimental: as §1

[5] = system: Enterobacter cloacae 2952B; test: In vitro MIC, Agar Well Diffusion Method; format: cell-based; conditions: read-out: In Vitro MIC
Experimental: as §1

Micrococcus luteus PCl = test: In vitro MIC, Agar Well Diffusion Method; format: cell-based; conditions: read-out: In Vitro MIC
Experimental: as §1

Escherichia coli 1269B = test: In vitro MIC, Agar Well Diffusion Method; format: cell-based; conditions: read-out: In Vitro MIC
Experimental: as §1

Pseudomonas aeruginosa B = test: In vitro MIC, Agar Well Diffusion Method; format: cell-based; conditions: read-out: In Vitro MIC
Experimental: as §1

Proteus vulgaris 101N = test: In vitro MIC, Agar Well Diffusion Method; format: cell-based; conditions: read-out: In Vitro MIC
Experimental: as §1

Serratia marcescens SM [6] = test: In vitro MIC, Broth Dilution Method; format: cell-based; conditions: read-out: In Vitro MIC
Experimental: (§2) The diluted agents prepared in Mueller-Hinton broth were dispensed from a Dynatech MIC 2000 machine, in 100 microliter (μL) volumes into 96 well trays and used immediately or frozen at -10° to -70° C. until needed. Using a Dynatech inoculator and inoculum trays, 1.5 μL of a 10^-2 dilution of an overnight culture was added to each well of the tray. The tops of the trays were then sealed with tape, and the trays were incubated overnight at 37° C. and then examined with a viewer. The lowest concentration at which no growth was observed was considered to be the minimum inhibitory concentration (MIC).

[7] = system: Pseudomonas aeruginosa ATCC 27853; test: In vitro MIC, Broth Dilution Method; format: cell-based
Experimental: as §2

Escherichia coli TEM-1 = test: In vitro MIC, Broth Dilution Method; format: cell-based; conditions: TEM1, read-out: In Vitro MIC
Experimental: as §2

[8] = system: Staphylococcus aureus Smith; test: In vitro MIC, Broth Dilution Method; format: cell-based; conditions: read-out: In Vitro MIC
Experimental: as §2

[9] = system: Enterobacter cloacae 5699; test: In vitro MIC, Broth Dilution Method; format: cell-based
Experimental: as §2

Klebsiella pneumoniae A = test: In vitro MIC, Broth Dilution Method; format: cell-based; conditions: read-out: In Vitro MIC
Experimental: as §2

Proteus mirabilis 2 = test: In vitro MIC, Broth Dilution Method; format: cell-based
Experimental: as §2

Enterobacter cloacae P99 = test: In vitro MIC, Broth Dilution Method; format: cell-based; conditions: P99, read-out: In Vitro MIC
Experimental: as §2

[10] = system: Streptococcus faecalis ATCC 29212; test: In vitro MIC, Broth Dilution Method; format: cell-based; conditions: Enterococcus faecalis
Experimental: as §2

[11] = system: Citrobacter freundii BS-16; test: In vitro MIC, Broth Dilution Method; format: cell-based
Experimental: as §2

[12] = system: Proteus vulgaris ATCC 6380; test: In vitro MIC, Broth Dilution Method; format: cell-based
Experimental: as §2

[13] = system: Staphylococcus aureus ATCC 29213; test: In vitro MIC, Broth Dilution Method; format: cell-based
Experimental: as §2

[14] = system: Streptococcus pneumoniae 6301; test: In vitro MIC, Broth Dilution Method; format: cell-based
Experimental: as §2

Escherichia coli 4 = test: In vitro MIC, Broth Dilution Method; format: cell-based
Experimental: as §2

Proteus mirabilis 90 = test: In vitro MIC, Broth Dilution Method; format: cell-based
Experimental: as §2

[15] = system: Pseudomonas aeruginosa Stone 130; test: In vitro MIC, Broth Dilution Method; format: cell-based; conditions: STONE130; Broth Dilution Method; Pseudomonas aeruginosa Stone 130; read-out: In Vitro MIC
Experimental: as §2

[16] = Agar Well Diffusion Method, Streptococcus aureus 82, read-out: In Vitro MIC
[17] = Agar Well Diffusion Method, Serratia marcescens SM
[18] = Agar Well Diffusion Method, Klebsiella pneumoniae 369, read-out: In Vitro MIC
[19] = ATCC8043, Agar Well Diffusion Method, Streptococcus faecium ATCC 8043, read-out: In Vitro MIC
[20] = Agar Well Diffusion Method, Pseudomonas aeruginosa 56, read-out: In Vitro MIC
[21] = Agar Well Diffusion Method, Enterobacter cloacae 2952B
[22] = Agar Well Diffusion Method, Micrococcus luteus PCl
[23] = Agar Well Diffusion Method, Escherichia coli 1269B
[24] = Agar Well Diffusion Method, Pseudomonas aeruginosa B
[25] = Agar Well Diffusion Method, Proteus vulgaris 101N
[26] = Broth Dilution Method, Serratia marcescens SM
[27] = ATCC27853, Broth Dilution Method, Pseudomonas aeruginosa ATCC 27853, read-out: In Vitro MIC
[28] = Broth Dilution Method, Staphylococcus aureus Smith
[29] = Enterobacter cloacae, 5699, read-out: In Vitro MIC
[30] = Broth Dilution Method, Klebsiella pneumoniae A
[31] = Broth Dilution Method, Proteus mirabilis 2, read-out: In Vitro MIC
[32] = ATCC29212, Broth Dilution Method, Streptococcus faecalis ATCC 29212, read-out: In Vitro MIC
[33] = BS16, Broth Dilution Method, Citrobacter freundii BS-16, read-out: In Vitro MIC
[34] = Proteus vulgaris, ATCC6380, read-out: In Vitro MIC
[35] = Proteus mirabilis, 2, read-out: In Vitro MIC
[36] = ATCC29213, Broth Dilution Method, Staphylococcus aureus ATCC 29213, read-out: In Vitro MIC
[37] = Broth Dilution Method, Streptococcus pneumoniae 6301, read-out: In Vitro MIC
[38] = Broth Dilution Method, Escherichia coli 4, read-out: In Vitro MIC
[39] = Broth Dilution Method, Proteus mirabilis 90, read-out: In Vitro MIC
[40] = Escherichia coli, 4, read-out: In Vitro MIC
[41] = Broth Dilution Method, Enterobacter cloacae 5699, read-out: In Vitro MIC
[42] = Citrobacter freundii, BS16, read-out: In Vitro MIC
[43] = ATCC6380, Broth Dilution Method, Proteus vulgaris ATCC 6380, read-out: In Vitro MIC

SMILES	MIC (Streptococcus 82; [16]) [µg/mL]	MIC (Serratia marcescens SM [1]; [17]) [µg/mL]	MIC [2, 18] [µg/mL]	MIC (Serratia marcescens SM [6]; [26]) [µg/mL]	MIC [7, 27] [µg/mL]	MIC (Escherichia coli TEM-1) [µg/mL]	MIC [8, 28] [µg/mL]	MIC [9, 29] [µg/mL]	MIC (Klebsiella pneumoniae A; [30]) [µg/mL]	MIC (Enterobacter cloacae P99) [µg/mL]	MIC [10, 32] [µg/mL]	MIC [11, 33] [µg/mL]	MIC [12, 34] [µg/mL]	MIC (Proteus mirabilis 2; [35]) [µg/mL]	MIC [13, 36] [µg/mL]	MIC [14, 37] [µg/mL]	MIC (Escherichia coli 4; [38]) [µg/mL]	MIC (Proteus mirabilis 90; [39]) [µg/mL]	MIC (Serratia marcescens SM [6]; Serratia marcescens) [µg/mL]	MIC [15] [µg/mL]	further results
CCn1cc(C(=O)O)c(=O)c2cc(F)c(N3CCN(C=N[C@@H]4C(=O)N5[C@@H]4SC(C)(C)[C@@H]5C(=O)O)CC3)cc21 [Compound B, [2S-(2α,5α,6β)]-7-[4-[[[2-(Carboxy)-3,3-dimethyl-7-oxo-4-thia-1-azabicyclo[3.2.0]hept-6-yl]imino]methyl]-1-piperazinyl]-1-ethyl-6-fluoro-1,4-dihydro-4-oxo-3-quinolinecarboxylic acid monosodium salt]	7.8	62.5	3.9	0.125	8	0.031	0.25	0.063	0.125	0.063	2	0.25	0.063	–	–	–	–	–	–	–	MIC [3, 19]: 62.5 µg/mL; MIC [4, 20]: 7.8 µg/mL; MIC [5, 21]: 15.6 µg/mL; MIC (Micrococcus luteus PCl; [22]): 31.3 µg/mL; MIC (Escherichia coli 1269B; [23]): 0.98 µg/mL; MIC (Pseudomonas aeruginosa B; [24]): 7.8 µg/mL; MIC (Proteus vulgaris 101N; [25]): 1.95 µg/mL; MIC (Proteus mirabilis 2; [31]): 0.125 µg/mL
CCn1cc(C(=O)O)c(=O)c2cc(F)c(N3CCN(C=N[C@@H]4C(=O)N5C(C(=O)O)=C(C)CS[C@H]45)CC3)cc21 [Compound C, 6R-[6α,7β(E(]]-7-[4-[[(2-Carboxy-3-methyl-8-oxo-5-thia-1-azabicyclo[4.2.0]oct-2-en-7-yl)imino]-methyl]-1-piperazinyl]-1-ethyl-6-fluoro-1,4-dihydro-4-oxo-3-quinolinecarboxylic acid disodium salt]	15.6	3.9	3.9	0.125	2	0.063	–	0.063	0.125	0.125	8	0.25	0.063	0.063	1	8	0.125	0.25	–	–	MIC [3, 19]: 500 µg/mL; MIC [4, 20]: 3.9 µg/mL; MIC [5, 21]: 7.8 µg/mL; MIC (Micrococcus luteus PCl; [22]): 250 µg/mL; MIC (Escherichia coli 1269B; [23]): 3.9 µg/mL; MIC (Pseudomonas aeruginosa B; [24]): 3.9 µg/mL; MIC (Proteus vulgaris 101N; [25]): 0.98 µg/mL
CCn1cc(C(=O)[O-])c(=O)c2cc(F)c(N3CCN(C=N[C@@H]4C(=O)N(S(=O)(=O)[O-])[C@@H]4COC(N)=O)CC3)cc21.[Na+].[Na+] [Compound F, (2S-cis)-7-[4-[[[2-[[(Aminocarbonyl)oxy]methyl]-4-oxo-1-sulfo-3-azetidinyl]imino]methyl]-1-piperazinyl]-1-ethyl-6-fluoro-1,4-dihydro-4-oxo-3-quinolinecarboxylic acid disodium salt]	–	–	–	–	–	0.063	–	0.063	–	0.125	–	–	0.031	0.063	–	–	–	–	0.063	–	MIC (Streptococcus 82; Streptococcus, 82, read-out: In Vitro MIC): 31.3 µg/mL; MIC (Serratia marcescens SM [1]; Serratia marcescens): 62.5 µg/mL; MIC ([2]; Klebsiella pneumoniae, 369, read-out: In Vitro MIC): 3.9 µg/mL; MIC ([3]; ATCC8043, read-out: In Vitro MIC): 500 µg/mL; MIC ([4]; Pseudomonas aeruginosa, 56, read-out: In Vitro MIC): 7.8 µg/mL; MIC ([5]; Enterobacter cloacae, 2952B): 31.3 µg/mL; MIC (Micrococcus luteus PCl; Micrococcus luteus): 500 µg/mL; MIC (Escherichia coli 1269B; Escherichia coli, 1269B): 7.8 µg/mL; MIC (Pseudomonas aeruginosa B; Pseudomonas aeruginosa): 7.8 µg/mL; MIC (Proteus vulgaris 101N; Proteus vulgaris, 101N): 1.95 µg/mL; MIC ([7]; Pseudomonas aeruginosa, ATCC27853, read-out: In Vitro MIC): 2 µg/mL; MIC (Klebsiella pneumoniae A; Klebsiella pneumoniae): 0.125 µg/mL; MIC ([13]; Staphylococcus aureus, ATCC29213, read-out: In Vitro MIC): 2 µg/mL; MIC ([14]; Streptococcus pneumoniae, 6301, read-out: In Vitro MIC): 8 µg/mL; MIC ([10]; ATCC29212, read-out: In Vitro MIC): 4 µg/mL; MIC (Escherichia coli 4; [40]): 0.125 µg/mL
CCn1cc(C(=O)O)c(=O)c2cc(F)c(N3CCN(C=N[C@@H]4C(=O)N5C(C(=O)O)=C(COC(C)=O)CS[C@H]45)CC3)cc21 [Compound I, [6R-[6α,7β(Z)]]-7-[4-[[[3-[Acetyloxy)methyl]-2-carboxylic-8-oxo-5-thia-1-azabicyclo[4..0]oct-2-en-7-yl]imino]methyl]-1-piperazinyl]-1-ethyl-6-fluoro-1,4-dihydro-4-oxo-3-quinolinecarboxylic acid monosodium salt]	–	–	–	0.125	8	0.063	0.25	–	0.125	0.063	4	0.25	0.063	0.063	2	0.5	0.125	0.5	–	1	MIC [9, 41]: 0.125 µg/mL
CCn1cc(C(=O)O)c(=O)c2cc(F)c(N3CCN(C=N[C@@H]4C(=O)N5C(C(=O)O)=C(CSc6nc(=O)c(=O)[nH]n6C)CS[C@H]45)CC3)cc21 [Compound J, [6R-[6α,7β(Z)]]-7-[4-[[[2-Carboxy-3-[[(1,2,5,6-tetrahydro-2-methyl-5,6-dioxo-1,2,4-triazin-3-yl)thio]methyl]-8-oxo-5-thia-1-azabicyclo[4.2.0]-oct-2-en-7-yl]-imino]methyl]-1-piperazinyl]-ethyl-6-fluoro-1,4-dihydro-4-oxo-3-quinolinecarboxylic acid disodium salt]	–	–	–	–	16	0.25	–	–	0.5	0.5	0.25	–	–	–	2	2	–	–	0.5	8	MIC ([8]; Staphylococcus aureus): 1 µg/mL; MIC [9, 41]: 0.25 µg/mL; MIC (Proteus mirabilis 2; [31]): 0.5 µg/mL; MIC (Escherichia coli 4; [40]): 0.25 µg/mL; MIC [11, 42]: 0.5 µg/mL; MIC [12, 43]: 0.125 µg/mL; MIC (Proteus mirabilis 90; Proteus mirabilis, 90, read-out: In Vitro MIC): 1 µg/mL
CCn1cc(C(=O)O)c(=O)c2cc(F)c(N3CCCN(C=N[C@@H]4C(=O)N5[C@@H]4SC(C)(C)[C@@H]5C(=O)O)CC3)nc21 [Compound K, [2S-(2α,5α,6β)]-7-[4-[[2-Carboxy-3,3-dimethyl-7-oxo-4-thia-1-azabicyclo[3.2.0]hept-6-yl)-imino]methyl]hexahydro-1H, 1,4-diazepin-1-yl]-1-ethyl-6-fluoro-1,4-dihydro-4-oxo-1,8-naphthyridine--carboxylic acid disodium salt]	–	–	–	–	–	1	2	4	2	1	128	–	–	4	16	2	2	8	4	8	MIC [11, 42]: 4 µg/mL; MIC [12, 43]: 2 µg/mL
